Patent publication US5753516A, “Screening method for ligands of the EBI-1 receptor” (priority 1995, dated 1998)
Entries after “also recorded” stand apart in the source; their conditions may differ.

Legend:
[1] = test system: LAZ 221 cells; assay: Migration (chemotaxis) of LAZ 221 pre-B ALL cells; assay type: cell-based, human; conditions: LAZ 221, peptide 100 nM; spontaneous locomotion 1886
[2] = test system: LAZ 388 cells; assay: Migration (chemotaxis) of LAZ 388 EBV-transformed B cells; assay type: cell-based, human
[3] = test system: NALM 6 cells; assay: Flow cytometry of surface molecule expression on NALM 6 cells; assay type: cell-based, human; conditions: for surface expression of CD9: NALM 6 / pre-B ALL cells
Description: NALM 6 cells (10^6 /ml) were incubated at 37° with MET-ENK (10^-7 M) for 0 (Panel A and B) or 30 minutes (Panel C and D). Cells were then transferred to an ice bath, pelleted by centrifugation, and stained for immunofluorescent analysis and flow cytoflourimetry. Data are shown as histograms depicting the distribution of 10,000 cells labeled with anti-CD9 (Panel A and C) or CD-10 (Panel B and D) mAb. The anti-CD9 and anti-CD10 mAb used for these experiments were isotype matched (IgG1).
FIG. 4, Panels A-C. […] Data are presented as mean fluorescence intensities measured for 10,000 cells labeled with anti-CD9 or CD10 mAb. In Panel A, the NALM 6 Cells were incubated with MET-ENK (10^-7 M) for the times indicated. In Panel B, the LAZ 221 cells were incubated with MET-ENK at the doses indicated for 5 minutes at 37° C. […] The anti-CD9 and anti-CD10 mAb used for these experiments were of the IgG2a isotype.
(§1) Immunofluorescence Staining and Flow Cytometric Analysis of Cell Surface Molecules: Cells were resuspended at 1×10^6 /ml in PBS and then incubated for periods of 5 to 120 minutes at 37° C. with MET-ENK at doses of 0 to 10^-5 M. Incubations were terminated by transferring samples to an ice bath and then pelleting the cells by centrifugation at 1800 rpm for 5 minutes at 4° C.
(§2) Immunofluorescence staining was carried out in 4-ml tubes maintained in an ice water bath. […] Cells were subsequently fixed within a 2% solution of formalin and maintained in the dark at 10° C. until analyzed.
(§3) Flow cytometric analysis was performed using a FACS SCAN Flow Cytometer (Becton Dickinson, Mountain View, Calif.) equipped with a HP9000 Series computer and the Lysys System software analysis package. Data were collected as histograms depicting the fluorescence intensity for 5,000 to 10,000 cells per sample.
(§4) The non-binding IgG1 MOPC myeloma protein, anti-macrophage/monocyte specific CD14 (MO2; IgG2) and anti-T cell specific CD3 (OKT3; IgG2a) mAb were employed as nonreactive controls for measuring the autofluorescence of B cells.

[4] = test system: LAZ 388 cells; assay: Flow cytometry of surface molecule expression on LAZ 388 cells; assay type: cell-based, human
Description: as §1, §2, §3, §4

[5] = test system: Jurkat cells; assay: [Ca^2+ ]i response of Jurkat cells (Indo-1, flow cytometry); assay type: cell-based, human
Description: FIG. 14, Panel A and B. Methionine enkephalin and opiate receptor agonists selective for […] stimulate transmembrane signaling in Jurkat cells. Cells were labeled with Indo-1, washed twice in serum-free medium and held at 4° C. until analyzed. Indo-1 fluorescence was measured using flow cytometry as previously described (Heagy et al., 1992; Ledbetter et al., 1987; Chang et al., 1989; Rabinovitch et al., 1986). The fluorescence for nonstimulated cells (measured in medium, alone) was arbitrarily set at 1.0. Data are presented as per cent increase in the response [(r-baseline) x 100%]. Baseline [Ca^2+ ]i value measured for Jurkat cells (n=4) was 80±40 nM. Baseline Panel A, Jurkat cell response to MET-ENK (0.1 nM, 10 nM and 1 μM) and to the d- selective agonist Dermenkephalin (10 nM). Panel B, Jurkat cell response to the d- selective agonist (D-Pen ^2,5, p Cl-Phe^4)-ENK (0.1 nM. 10 nM. 1 μM).
The inventors (Heagy et al., 1992) have previously shown that when applied to NALM 6 cells the κ-1 agonist U69,953 stimulates a rapid increase in [Ca^2+ ]i. […] In order to determine whether the sites the inventors have identified using the δ-selective agonists also elicit Ca^2+ responses the inventors measured the effects of opioid peptides and δ-selective agonists on the calcium response. […] These studies provide evidence that Jurkat cells have functional δ opiate receptor sites which stimulate transmembrane signaling via rapid increases in [Ca^2+ ]i.

[6] = test system: PBMC; conditions: cited from earlier work
[7] = NALM 6, 10^-7 M MET-ENK, untreated 1.0
[8] = NALM 6, 10^-7 M MET-ENK, untreated 1.1
[9] = NALM 6, 10^-7 M MET-ENK, untreated 1.8
[10] = LAZ 388, 10^-7 M MET-ENK, untreated 1.0
[11] = LAZ 388, 10^-7 M MET-ENK, untreated 11.4

CSCC[C@H](NC(=O)[C@H](Cc1ccccc1)NC(=O)CNC(=O)CNC(=O)[C@@H](N)Cc1ccc(O)cc1)C(=O)O [MET-ENK, Tyr-Gly-Gly-Phe-Met]
cell migration (cell counts) [1]: 6199 cell counts
cell migration (cell counts) ([2]; LAZ 388, peptide 100 nM, spontaneous locomotion 1938): 1986 cell counts
migration of LAZ 388 cells ([2]; LAZ 388 vs spontaneous locomotion): equivalent to their spontaneous locomotion
duration of enhanced CD9 expression ([3]; MET-ENK 10^-7 M): 60 min
time of decline of CD9 expression to near baseline ([3]; MET-ENK 10^-7 M): 120 min
incubation time causing increase in CD9 expression ([3]; MET-ENK 10^-7 M, pre-B ALL cells): ≤ 10 min
staining for β-1 integrins, MET-ENK treated vs not ([3]; NALM 6): equivalent on NALM 6 cells incubated with (+) or without (-) MET-ENK
CD11b (Mac 1) fluorescence ratio (mAb/isotype control) ([3]; NALM 6, 10^-7 M MET-ENK 30 min, untreated 1.0): 1.1
CD4 fluorescence ratio [3, 7]: 1.0
CD44 (homing receptor) fluorescence ratio [3, 7]: 2.2
CD49b (VLA-α2 chain) fluorescence ratio [3, 7]: 0.9
CD58 (LFA-3) fluorescence ratio [3, 7]: 0.9
CD18 (Integrin β chain) fluorescence ratio [3, 8]: 1.4
CD45 (T200) fluorescence ratio [3, 8]: 1.0
VLA-1 fluorescence ratio [3, 8]: 0.6
VLA-3 fluorescence ratio [3, 8]: 0.7
CD20 fluorescence ratio ([3]; NALM 6, 10^-7 M MET-ENK, untreated 1.5): 1.3
CD72 fluorescence ratio ([3]; NALM 6, 10^-7 M MET-ENK, untreated 1.6): 2.8
CD23 fluorescence ratio [3, 9]: 1.6
CD49f (VLA-α6 chain) fluorescence ratio [3, 9]: 1.3
CD22 fluorescence ratio ([3]; NALM 6, 10^-7 M MET-ENK, untreated 2.3): 3.1
CD49d (VLA-α4 chain) fluorescence ratio ([3]; NALM 6, 10^-7 M MET-ENK, untreated 3.9): 4.4
VLA-5 fluorescence ratio ([3]; NALM 6, 10^-7 M MET-ENK, untreated 5.2): 4.9
CD29 (VLA-β chain) fluorescence ratio ([3]; NALM 6, 10^-7 M MET-ENK, untreated 8.4): 9.3
CD54 (ICAM-1) fluorescence ratio ([3]; NALM 6, 10^-7 M MET-ENK, untreated 9.3): 10.5
VLA-β; DE9N fluorescence ratio ([3]; NALM 6, 10^-7 M MET-ENK, untreated 13.6): 13.8
surface expression of CD10 ([3]; NALM 6 / LAZ 221): no effect on CD10 expression
surface expression of CD9 [3]: upregulation of CD9; also recorded: transient increase in their surface expression of CD9 but not CD10 molecules
surface expression of CD9 ([3]; listed as Methionine-enkephalin): discrete, transient up-regulation in the CD9 molecules; also recorded: rapid and dose-dependentincrease in the CD9 but not CD10 molecules
CD9 expression, cells in ice water bath ([3]; ice water bath, data not shown): had no effect when they were maintained in an ice water bath
CD11a, CD18, CD54 expression, MET-ENK treated vs not ([4]; LAZ 388): equivalent for the MET-ENK-treated (+) and nontreated (-) cells
CD2 (LFA-2) fluorescence ratio [4, 10]: 0.9
CD49b (VLA-α2 chain) fluorescence ratio [4, 10]: 1.0
VLA-3 fluorescence ratio [4, 10]: 1.0
VLA-5 fluorescence ratio [4, 10]: 1.0
CD72 fluorescence ratio ([4]; LAZ 388, 10^-7 M MET-ENK, untreated 1.4): 1.7
CD11b (Mac 1) fluorescence ratio ([4]; LAZ 388, 10^-7 M MET-ENK, untreated 1.5): 1.5
CD20 fluorescence ratio ([4]; LAZ 388, 10^-7 M MET-ENK, untreated 1.7): 1.7
VLA-1 fluorescence ratio ([4]; LAZ 388, 10^-7 M MET-ENK, untreated 1.8): 2.0
CD19 fluorescence ratio ([4]; LAZ 388, 10^-7 M MET-ENK, untreated 8.6): 8.0
CD22 fluorescence ratio [4, 11]: 11.1
CD29 (VLA-β chain) fluorescence ratio [4, 11]: 11.2
VLA-β; DE9N fluorescence ratio ([4]; LAZ 388, 10^-7 M MET-ENK, untreated 11.5): 11.1
CD18 (Integrin β chain) fluorescence ratio ([4]; LAZ 388, 10^-7 M MET-ENK, untreated 11.9): 10.1
CD11a (LF1α) fluorescence ratio ([4]; LAZ 388, 10^-7 M MET-ENK, untreated 12.4): 11.4
CD54 (ICAM-1) fluorescence ratio ([4]; LAZ 388, 10^-7 M MET-ENK, untreated 18.7): 16.6
CD58 (LFA-3) fluorescence ratio ([4]; LAZ 388, 10^-7 M MET-ENK, untreated 22.4): 21.8
CD45 (T200) fluorescence ratio ([4]; LAZ 388, 10^-7 M MET-ENK, untreated 27.4): 27.3
CD23 fluorescence ratio ([4]; LAZ 388, 10^-7 M MET-ENK, untreated 68.2): 70.7
CD44 (homing receptor) fluorescence ratio ([4]; LAZ 388, 10^-7 M MET-ENK, untreated 79.0): 84.6
[Ca^2+ ]i response [5]: elicited a rapid rise in [Ca^2+ ]i
blastogenic responses to T and B cell lectins ([6]; PBMC): augment the blastogenic responses of PBMC to both T and B cell lectins
IFN-γ production ([6]; lectin stimulated PBMC): enhance IFN-γ production
